From ChEMBL document CHEMBL5442175, “EUbOPEN Chemogenomics Library - PDSP Secondary Binding” (2024)

Legend:
Histamine H3 receptor = Histamine H3 receptor (Homo sapiens, UniProt Q9Y5N1); test: (§1) PDSP Secondary Binding target: HRH3 - Compounds are tested at 10 uM concentration, plate are incubated at room temperature in the dark for 90 minutes. Reaction are stopped by vacuum filtration onto 0.3% polyethyleneimine soaked filter mats using Filtermate harvester. Scintillation cocktail is then melted onto microwave-dried filters on a hot plate and the radio activity is counted in Microbia counter.
[1] = target: T1, Muscarinic acetylcholine receptor M1 (Homo sapiens, UniProt P11229); test: as §1, with “CHRM1” for “HRH3”
T1 sequence (P11229 whole entry): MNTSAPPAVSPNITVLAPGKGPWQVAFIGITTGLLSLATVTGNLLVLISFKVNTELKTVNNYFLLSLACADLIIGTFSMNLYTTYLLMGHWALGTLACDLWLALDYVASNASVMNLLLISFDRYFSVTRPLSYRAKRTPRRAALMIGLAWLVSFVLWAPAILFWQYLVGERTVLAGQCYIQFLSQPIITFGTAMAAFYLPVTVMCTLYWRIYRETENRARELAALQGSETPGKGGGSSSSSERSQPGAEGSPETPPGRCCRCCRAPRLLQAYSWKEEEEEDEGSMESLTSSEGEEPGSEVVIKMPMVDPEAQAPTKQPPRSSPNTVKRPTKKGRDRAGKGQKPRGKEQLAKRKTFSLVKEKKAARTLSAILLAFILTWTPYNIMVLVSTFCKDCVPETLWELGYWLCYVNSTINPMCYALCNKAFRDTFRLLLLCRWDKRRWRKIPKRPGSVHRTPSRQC

[2] = target: Sodium-dependent dopamine transporter (Homo sapiens, UniProt Q01959); test: as §1, with “SLC6A3” for “HRH3”
[3] = target: T2, Alpha-2C adrenergic receptor (Homo sapiens, UniProt P18825); test: as §1, with “ADRA2C” for “HRH3”
T2 sequence (P18825 whole entry): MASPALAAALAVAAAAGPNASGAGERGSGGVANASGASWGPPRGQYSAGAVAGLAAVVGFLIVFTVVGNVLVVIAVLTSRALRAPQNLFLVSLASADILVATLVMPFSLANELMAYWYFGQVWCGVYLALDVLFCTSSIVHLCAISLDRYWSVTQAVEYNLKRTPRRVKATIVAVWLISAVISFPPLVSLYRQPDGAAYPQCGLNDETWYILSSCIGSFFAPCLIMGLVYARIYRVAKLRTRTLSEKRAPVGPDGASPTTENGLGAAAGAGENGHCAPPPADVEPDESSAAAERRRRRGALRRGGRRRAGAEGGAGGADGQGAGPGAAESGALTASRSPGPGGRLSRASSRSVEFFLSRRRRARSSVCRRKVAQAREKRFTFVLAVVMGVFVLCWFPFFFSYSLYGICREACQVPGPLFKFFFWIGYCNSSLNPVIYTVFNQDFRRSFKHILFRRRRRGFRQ

[4] = target: T3, Muscarinic acetylcholine receptor M2 (Homo sapiens, UniProt P08172); test: as §1, with “CHRM2” for “HRH3”
T3 sequence (P08172 whole entry): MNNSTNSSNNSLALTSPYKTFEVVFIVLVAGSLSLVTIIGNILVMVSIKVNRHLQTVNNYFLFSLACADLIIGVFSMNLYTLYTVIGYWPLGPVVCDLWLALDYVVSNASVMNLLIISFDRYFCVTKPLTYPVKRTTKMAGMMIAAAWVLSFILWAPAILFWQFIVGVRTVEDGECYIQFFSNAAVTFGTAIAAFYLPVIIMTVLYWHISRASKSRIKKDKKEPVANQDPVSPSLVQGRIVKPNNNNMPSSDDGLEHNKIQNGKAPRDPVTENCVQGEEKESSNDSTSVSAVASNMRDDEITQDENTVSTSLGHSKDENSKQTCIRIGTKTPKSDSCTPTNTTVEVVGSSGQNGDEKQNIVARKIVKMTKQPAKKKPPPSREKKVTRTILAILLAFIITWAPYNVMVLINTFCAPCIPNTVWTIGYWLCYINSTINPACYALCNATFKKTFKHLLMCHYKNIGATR

[5] = target: 5-hydroxytryptamine receptor 1B (Homo sapiens, UniProt P28222); test: as §1, with “HTR1B” for “HRH3”
[6] = target: T4, 5-hydroxytryptamine receptor 3A (Homo sapiens, UniProt P46098); test: as §1, with “HTR3A” for “HRH3”
T4 sequence (P46098 whole entry): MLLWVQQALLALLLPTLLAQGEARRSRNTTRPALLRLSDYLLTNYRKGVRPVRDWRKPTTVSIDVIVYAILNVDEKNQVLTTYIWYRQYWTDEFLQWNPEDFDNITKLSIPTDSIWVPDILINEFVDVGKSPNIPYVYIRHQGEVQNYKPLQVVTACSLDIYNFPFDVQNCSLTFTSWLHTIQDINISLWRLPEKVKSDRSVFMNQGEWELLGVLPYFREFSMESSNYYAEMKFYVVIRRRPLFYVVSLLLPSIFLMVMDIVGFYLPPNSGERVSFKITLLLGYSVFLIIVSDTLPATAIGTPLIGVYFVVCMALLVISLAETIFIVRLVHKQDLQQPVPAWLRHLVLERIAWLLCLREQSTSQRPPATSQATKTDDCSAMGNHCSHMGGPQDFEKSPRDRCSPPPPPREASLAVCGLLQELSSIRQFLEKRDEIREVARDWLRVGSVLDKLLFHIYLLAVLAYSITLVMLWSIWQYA

[7] = target: T5, Alpha-1A adrenergic receptor (Homo sapiens, UniProt P35348); test: as §1, with “ADRA1A” for “HRH3”
T5 sequence (P35348 whole entry): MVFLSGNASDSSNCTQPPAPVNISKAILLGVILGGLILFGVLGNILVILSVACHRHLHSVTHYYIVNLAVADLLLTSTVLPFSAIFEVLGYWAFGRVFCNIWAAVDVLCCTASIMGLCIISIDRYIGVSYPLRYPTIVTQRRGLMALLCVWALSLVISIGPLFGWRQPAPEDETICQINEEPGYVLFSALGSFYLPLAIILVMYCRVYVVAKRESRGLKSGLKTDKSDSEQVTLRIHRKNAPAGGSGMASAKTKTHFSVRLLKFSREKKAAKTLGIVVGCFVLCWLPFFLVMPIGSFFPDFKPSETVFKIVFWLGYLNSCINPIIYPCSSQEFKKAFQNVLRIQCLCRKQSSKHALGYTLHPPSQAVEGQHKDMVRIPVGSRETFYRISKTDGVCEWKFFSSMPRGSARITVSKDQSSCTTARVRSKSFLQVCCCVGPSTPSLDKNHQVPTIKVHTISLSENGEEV

[8] = target: 5-hydroxytryptamine receptor 2A (Homo sapiens, UniProt P28223); test: as §1, with “HTR2A” for “HRH3”
[9] = target: Sigma intracellular receptor 2 (Homo sapiens, UniProt Q5BJF2); test: as §1, with “TMEM97” for “HRH3”
[10] = target: 5-hydroxytryptamine receptor 1D (Homo sapiens, UniProt P28221); test: as §1, with “HTR1D” for “HRH3”
[11] = target: T6, Alpha-2A adrenergic receptor (Homo sapiens, UniProt P08913); test: as §1, with “ADRA2A” for “HRH3”
T6 sequence (P08913 whole entry): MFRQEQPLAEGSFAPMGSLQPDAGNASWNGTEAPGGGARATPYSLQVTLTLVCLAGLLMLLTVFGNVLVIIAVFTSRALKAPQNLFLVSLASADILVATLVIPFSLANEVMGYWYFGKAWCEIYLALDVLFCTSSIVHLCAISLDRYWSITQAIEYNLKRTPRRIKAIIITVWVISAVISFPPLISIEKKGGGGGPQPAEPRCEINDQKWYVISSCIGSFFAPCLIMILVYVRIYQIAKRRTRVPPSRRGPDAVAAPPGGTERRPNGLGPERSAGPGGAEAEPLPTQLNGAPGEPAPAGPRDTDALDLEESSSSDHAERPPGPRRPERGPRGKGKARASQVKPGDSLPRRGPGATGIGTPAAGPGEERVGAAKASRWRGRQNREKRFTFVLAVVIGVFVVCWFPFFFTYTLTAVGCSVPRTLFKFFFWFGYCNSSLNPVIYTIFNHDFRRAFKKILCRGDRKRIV

[12] = target: T7, Alpha-1B adrenergic receptor (Homo sapiens, UniProt P35368); test: as §1, with “ADRA1B” for “HRH3”
T7 sequence (P35368 whole entry): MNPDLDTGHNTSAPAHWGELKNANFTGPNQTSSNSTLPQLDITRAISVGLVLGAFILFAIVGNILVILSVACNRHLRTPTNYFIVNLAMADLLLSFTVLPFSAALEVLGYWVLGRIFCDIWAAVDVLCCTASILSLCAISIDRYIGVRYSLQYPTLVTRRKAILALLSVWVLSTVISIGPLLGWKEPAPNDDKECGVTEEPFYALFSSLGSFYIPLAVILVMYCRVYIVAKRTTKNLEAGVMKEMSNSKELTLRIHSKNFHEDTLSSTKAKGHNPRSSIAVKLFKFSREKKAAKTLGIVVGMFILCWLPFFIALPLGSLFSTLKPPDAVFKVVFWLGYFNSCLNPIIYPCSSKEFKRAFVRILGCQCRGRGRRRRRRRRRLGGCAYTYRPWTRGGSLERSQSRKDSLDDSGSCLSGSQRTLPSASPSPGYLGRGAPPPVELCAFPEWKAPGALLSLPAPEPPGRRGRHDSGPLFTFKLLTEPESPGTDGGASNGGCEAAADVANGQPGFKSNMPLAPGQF

[13] = target: 5-hydroxytryptamine receptor 7 (Homo sapiens, UniProt P34969); test: as §1, with “HTR7” for “HRH3”
Histamine H1 receptor = Histamine H1 receptor (Homo sapiens, UniProt P35367); test: as §1, with “HRH1” for “HRH3”
[14] = target: Sigma non-opioid intracellular receptor 1 (Homo sapiens, UniProt Q99720); test: as §1, with “SIGMAR1” for “HRH3”
[15] = target: Sodium-dependent noradrenaline transporter (Homo sapiens, UniProt P23975); test: as §1, with “SLC6A2” for “HRH3”
[16] = target: T8, Muscarinic acetylcholine receptor M5 (Homo sapiens, UniProt P08912); test: as §1, with “CHRM5” for “HRH3”
T8 sequence (P08912 whole entry): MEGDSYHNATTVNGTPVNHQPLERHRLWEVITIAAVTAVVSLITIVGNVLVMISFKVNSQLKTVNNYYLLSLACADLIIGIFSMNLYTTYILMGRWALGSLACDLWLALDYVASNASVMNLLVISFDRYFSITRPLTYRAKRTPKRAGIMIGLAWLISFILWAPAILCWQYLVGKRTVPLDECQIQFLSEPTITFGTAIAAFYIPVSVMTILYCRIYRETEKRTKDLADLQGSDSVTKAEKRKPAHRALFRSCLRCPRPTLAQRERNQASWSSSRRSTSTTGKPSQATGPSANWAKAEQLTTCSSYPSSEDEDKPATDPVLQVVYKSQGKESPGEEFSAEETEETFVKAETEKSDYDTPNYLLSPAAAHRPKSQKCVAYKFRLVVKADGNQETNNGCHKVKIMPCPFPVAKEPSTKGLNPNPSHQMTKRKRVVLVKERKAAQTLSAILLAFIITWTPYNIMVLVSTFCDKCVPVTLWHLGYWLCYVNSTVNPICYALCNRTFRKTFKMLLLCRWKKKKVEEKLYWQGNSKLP

[17] = target: Kappa-type opioid receptor (Homo sapiens, UniProt P41145); test: as §1, with “OPRK1” for “HRH3”
Sequence of Kappa-type opioid receptor (P41145 whole entry): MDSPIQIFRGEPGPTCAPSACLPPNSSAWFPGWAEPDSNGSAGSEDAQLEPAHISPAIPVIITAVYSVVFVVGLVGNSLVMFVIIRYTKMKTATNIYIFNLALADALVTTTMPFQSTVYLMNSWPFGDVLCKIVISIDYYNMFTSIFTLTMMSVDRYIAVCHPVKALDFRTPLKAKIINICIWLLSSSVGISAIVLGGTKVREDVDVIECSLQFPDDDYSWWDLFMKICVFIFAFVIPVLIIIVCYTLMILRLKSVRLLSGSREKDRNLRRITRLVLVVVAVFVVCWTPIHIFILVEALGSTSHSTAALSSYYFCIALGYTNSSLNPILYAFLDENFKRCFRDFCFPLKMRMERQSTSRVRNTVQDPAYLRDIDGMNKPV

Sequence of Histamine H3 receptor (Q9Y5N1 whole entry): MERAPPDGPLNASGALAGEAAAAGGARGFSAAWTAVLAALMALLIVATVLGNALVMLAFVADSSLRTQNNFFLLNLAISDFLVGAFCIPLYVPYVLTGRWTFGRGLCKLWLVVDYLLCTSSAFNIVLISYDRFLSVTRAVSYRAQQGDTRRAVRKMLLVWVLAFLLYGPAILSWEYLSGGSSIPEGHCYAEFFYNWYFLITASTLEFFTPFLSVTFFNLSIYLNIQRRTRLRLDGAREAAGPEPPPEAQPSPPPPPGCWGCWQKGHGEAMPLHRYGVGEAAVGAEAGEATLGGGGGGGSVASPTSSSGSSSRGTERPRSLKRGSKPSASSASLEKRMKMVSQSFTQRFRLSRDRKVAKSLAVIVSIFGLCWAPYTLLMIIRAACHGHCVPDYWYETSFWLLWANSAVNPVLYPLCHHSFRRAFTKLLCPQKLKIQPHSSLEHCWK
Sequence of Sodium-dependent dopamine transporter (Q01959 whole entry): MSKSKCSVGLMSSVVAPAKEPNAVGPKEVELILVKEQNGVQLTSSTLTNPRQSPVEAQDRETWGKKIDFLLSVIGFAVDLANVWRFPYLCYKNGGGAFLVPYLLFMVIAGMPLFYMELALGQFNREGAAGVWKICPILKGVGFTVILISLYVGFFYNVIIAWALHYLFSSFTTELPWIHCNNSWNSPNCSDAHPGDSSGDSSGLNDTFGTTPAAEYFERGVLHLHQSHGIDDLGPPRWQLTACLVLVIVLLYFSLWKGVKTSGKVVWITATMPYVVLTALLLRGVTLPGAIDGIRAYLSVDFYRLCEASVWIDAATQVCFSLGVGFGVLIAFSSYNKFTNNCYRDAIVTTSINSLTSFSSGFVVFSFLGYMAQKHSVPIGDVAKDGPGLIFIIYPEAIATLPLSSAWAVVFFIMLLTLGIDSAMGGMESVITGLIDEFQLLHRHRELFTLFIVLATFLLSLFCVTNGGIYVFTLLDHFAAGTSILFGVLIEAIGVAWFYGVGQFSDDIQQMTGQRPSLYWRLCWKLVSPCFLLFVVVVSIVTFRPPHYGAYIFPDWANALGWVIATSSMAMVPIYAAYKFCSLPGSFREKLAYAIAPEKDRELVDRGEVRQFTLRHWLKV
Sequence of Sigma non-opioid intracellular receptor 1 (Q99720 whole entry): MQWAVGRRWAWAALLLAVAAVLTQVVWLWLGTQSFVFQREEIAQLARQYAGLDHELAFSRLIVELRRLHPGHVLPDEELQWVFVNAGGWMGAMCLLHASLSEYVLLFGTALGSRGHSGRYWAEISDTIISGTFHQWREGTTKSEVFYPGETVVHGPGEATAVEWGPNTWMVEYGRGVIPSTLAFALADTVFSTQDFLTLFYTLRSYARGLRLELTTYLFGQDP
Sequence of Sigma intracellular receptor 2 (Q5BJF2 whole entry): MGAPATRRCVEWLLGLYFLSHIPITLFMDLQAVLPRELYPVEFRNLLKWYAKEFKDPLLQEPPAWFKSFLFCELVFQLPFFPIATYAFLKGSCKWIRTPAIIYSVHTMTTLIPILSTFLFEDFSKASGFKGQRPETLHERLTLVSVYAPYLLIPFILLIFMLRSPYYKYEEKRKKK
Sequence of 5-hydroxytryptamine receptor 1B (P28222 whole entry): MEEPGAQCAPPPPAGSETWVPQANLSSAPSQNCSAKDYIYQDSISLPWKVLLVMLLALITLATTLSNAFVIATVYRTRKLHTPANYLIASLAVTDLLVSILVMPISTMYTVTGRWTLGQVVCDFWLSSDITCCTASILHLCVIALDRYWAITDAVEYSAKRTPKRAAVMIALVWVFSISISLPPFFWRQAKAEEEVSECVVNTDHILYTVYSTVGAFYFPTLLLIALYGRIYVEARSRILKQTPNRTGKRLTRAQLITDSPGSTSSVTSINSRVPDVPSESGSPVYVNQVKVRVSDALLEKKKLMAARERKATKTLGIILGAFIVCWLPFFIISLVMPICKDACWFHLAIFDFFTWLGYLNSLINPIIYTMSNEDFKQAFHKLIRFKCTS
Sequence of 5-hydroxytryptamine receptor 7 (P34969 whole entry): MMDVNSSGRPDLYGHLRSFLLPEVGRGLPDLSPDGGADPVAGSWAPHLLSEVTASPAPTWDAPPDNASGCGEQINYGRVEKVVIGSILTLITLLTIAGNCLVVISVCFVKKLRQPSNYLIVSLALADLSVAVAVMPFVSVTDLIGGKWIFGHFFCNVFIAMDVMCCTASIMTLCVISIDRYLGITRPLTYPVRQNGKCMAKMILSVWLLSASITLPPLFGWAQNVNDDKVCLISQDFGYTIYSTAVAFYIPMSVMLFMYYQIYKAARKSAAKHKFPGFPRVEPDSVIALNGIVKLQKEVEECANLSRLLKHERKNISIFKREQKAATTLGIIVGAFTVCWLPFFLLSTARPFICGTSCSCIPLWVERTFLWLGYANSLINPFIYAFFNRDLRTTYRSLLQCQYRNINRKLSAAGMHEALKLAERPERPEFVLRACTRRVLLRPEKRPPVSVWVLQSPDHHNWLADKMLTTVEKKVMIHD
Sequence of Sodium-dependent noradrenaline transporter (P23975 whole entry): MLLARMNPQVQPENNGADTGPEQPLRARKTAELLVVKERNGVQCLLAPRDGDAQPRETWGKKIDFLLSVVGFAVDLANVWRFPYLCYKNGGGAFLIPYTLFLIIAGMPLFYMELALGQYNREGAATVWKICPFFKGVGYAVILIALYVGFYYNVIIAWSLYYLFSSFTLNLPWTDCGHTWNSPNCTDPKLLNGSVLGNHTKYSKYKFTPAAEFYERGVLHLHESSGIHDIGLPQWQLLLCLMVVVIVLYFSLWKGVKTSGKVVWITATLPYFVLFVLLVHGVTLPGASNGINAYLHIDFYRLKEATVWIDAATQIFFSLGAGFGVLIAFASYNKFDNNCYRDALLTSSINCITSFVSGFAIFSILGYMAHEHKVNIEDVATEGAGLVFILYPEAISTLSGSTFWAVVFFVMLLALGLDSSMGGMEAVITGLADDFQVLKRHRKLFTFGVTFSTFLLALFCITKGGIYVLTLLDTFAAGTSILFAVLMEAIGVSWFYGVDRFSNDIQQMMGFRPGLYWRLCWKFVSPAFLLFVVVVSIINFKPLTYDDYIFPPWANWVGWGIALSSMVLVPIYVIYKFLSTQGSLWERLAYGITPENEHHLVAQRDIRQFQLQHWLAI
Sequence of 5-hydroxytryptamine receptor 1D (P28221 whole entry): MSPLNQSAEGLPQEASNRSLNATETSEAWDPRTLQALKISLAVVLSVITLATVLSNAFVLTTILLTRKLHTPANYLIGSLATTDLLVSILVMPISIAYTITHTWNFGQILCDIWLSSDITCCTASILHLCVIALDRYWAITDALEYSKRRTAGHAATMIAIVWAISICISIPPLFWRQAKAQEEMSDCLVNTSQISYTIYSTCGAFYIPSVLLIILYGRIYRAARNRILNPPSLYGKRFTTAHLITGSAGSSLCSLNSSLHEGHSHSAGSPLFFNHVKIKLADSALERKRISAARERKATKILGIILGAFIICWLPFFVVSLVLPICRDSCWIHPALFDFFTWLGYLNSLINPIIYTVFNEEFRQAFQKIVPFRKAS
Sequence of 5-hydroxytryptamine receptor 2A (P28223 whole entry): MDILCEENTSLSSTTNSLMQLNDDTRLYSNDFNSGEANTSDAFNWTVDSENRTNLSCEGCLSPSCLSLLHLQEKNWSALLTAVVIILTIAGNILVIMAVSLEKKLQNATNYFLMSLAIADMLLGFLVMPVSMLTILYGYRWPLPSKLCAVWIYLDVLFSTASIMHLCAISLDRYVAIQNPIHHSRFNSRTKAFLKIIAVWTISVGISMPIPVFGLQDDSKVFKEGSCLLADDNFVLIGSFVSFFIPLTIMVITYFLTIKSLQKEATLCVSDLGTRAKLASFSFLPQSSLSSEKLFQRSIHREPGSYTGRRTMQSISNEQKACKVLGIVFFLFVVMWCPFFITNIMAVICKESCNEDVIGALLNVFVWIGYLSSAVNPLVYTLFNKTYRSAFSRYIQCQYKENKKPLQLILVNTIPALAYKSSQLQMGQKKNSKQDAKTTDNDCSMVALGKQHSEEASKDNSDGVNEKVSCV
Sequence of Histamine H1 receptor (P35367 whole entry): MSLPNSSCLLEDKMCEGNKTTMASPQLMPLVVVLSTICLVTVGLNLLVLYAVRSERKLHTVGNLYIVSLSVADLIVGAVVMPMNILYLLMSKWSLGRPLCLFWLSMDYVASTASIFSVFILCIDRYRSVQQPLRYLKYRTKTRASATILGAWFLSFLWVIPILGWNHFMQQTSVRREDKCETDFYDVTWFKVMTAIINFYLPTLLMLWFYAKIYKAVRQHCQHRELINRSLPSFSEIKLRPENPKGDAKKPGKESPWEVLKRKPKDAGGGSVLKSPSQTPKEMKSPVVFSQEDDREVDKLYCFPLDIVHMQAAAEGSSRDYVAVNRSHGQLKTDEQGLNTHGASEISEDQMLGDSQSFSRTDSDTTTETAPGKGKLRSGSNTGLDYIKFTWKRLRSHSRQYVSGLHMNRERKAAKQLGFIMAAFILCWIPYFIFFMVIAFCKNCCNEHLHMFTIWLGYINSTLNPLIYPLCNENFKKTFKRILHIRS

| SMILES | Ki (Histamine H3 receptor) [nM] | Ki [1] [nM] | Ki [2] [nM] | Ki [3] [nM] | Ki [4] [nM] | Ki [5] [nM] | Ki [6] [nM] | Ki [7] [nM] | Ki [8] [nM] | Ki [9] [nM] | Ki [10] [nM] | Ki [11] [nM] | Ki [12] [nM] | Ki [13] [nM] | Ki (Histamine H1 receptor) [nM] | Ki [14] [nM] | Ki [15] [nM] | Ki [16] [nM] | Ki [17] [nM] |
| --- | --- | --- | --- | --- | --- | --- | --- | --- | --- | --- | --- | --- | --- | --- | --- | --- | --- | --- | --- |
| c1cc(CN2CCCNCCNCCCNCC2)ccc1CN1CCCNCCNCCCNCC1 [PLERIXAFOR] | 2.74 | 804 | > 10000 | 1780 | 1010 |  |  |  |  |  |  |  |  |  |  |  |  |  |  |
| NCCc1cn(S(=O)(=O)c2c(Cl)nc3sccn23)c2ccccc12 | 1980 |  | 1720 |  |  | 562 | 662 | 1100 | 111 | 675 | 216 | 153 | 4880 | 1430 | 1650 | 1320 | 1260 |  |  |
| COc1ccc2cc(S(=O)(=O)N[C@H](CC(=O)N[C@H](Cc3ccc(CN4[C@H](C)CCC[C@@H]4C)cc3)C(=O)N(C)C(C)C)c3ccc4c(c3)OCO4)ccc2c1 | 645 |  |  | 1260 | 528 |  |  |  |  | 63.4 |  |  |  |  |  | 495 |  | 841 | 195 |
